These results are taken from patent publication US20210378993A1 (Nacuity Pharmaceuticals, Inc., priority 2020, published 2021).

Molecules are shown by their SMILES. “And” between values parts separate entries of the source, which are not always exact repeats. Equal entries are not always repeated.

The target in data set [1] is T1, glutamate cysteine ligase (GCL, EC 6.3.2.2) (Homo sapiens, UniProt P48506).
T1 sequence (P48506 1-637): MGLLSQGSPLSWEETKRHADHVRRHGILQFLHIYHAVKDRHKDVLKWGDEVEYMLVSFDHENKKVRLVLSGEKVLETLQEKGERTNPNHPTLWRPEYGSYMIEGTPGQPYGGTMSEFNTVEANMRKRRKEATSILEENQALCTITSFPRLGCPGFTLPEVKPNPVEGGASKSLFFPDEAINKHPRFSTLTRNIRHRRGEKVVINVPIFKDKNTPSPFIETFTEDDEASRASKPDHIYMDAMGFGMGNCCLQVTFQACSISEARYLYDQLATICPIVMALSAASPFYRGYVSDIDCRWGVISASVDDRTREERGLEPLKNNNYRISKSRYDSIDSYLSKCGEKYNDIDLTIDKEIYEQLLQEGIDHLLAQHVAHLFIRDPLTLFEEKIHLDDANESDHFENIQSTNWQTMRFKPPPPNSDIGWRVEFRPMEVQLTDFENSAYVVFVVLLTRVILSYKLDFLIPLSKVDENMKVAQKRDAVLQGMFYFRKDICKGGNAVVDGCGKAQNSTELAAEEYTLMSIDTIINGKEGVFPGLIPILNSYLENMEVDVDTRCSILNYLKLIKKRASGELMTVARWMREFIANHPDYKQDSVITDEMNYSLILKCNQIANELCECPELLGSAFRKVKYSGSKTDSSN
T1 sequence (P48507 1-274 partner): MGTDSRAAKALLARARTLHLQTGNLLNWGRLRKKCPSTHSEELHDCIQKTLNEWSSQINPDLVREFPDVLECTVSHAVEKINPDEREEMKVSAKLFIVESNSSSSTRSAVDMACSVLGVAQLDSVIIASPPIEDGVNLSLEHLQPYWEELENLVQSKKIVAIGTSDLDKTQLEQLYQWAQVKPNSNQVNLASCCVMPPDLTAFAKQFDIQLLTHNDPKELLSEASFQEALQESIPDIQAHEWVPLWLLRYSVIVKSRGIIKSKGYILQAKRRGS
The note with it: cited from earlier work.

The test system of data set [2] is human cystinotic fibroblasts (GM00008). In words: Cytotoxicity (MTT cell viability) in cystinotic fibroblast cell culture. It counts as cell-based. The note with it: for increase of human cystinotic cell viability compared to cysteamine at the same concentration: 25 μM; for cell viability (cytotoxicity) versus no treatment: 25, 50 or 75 μM, 48 and 72 hours (FIGS. 1 and 2), MTT. The method, then:
Appropriate concentrations of the NACA and diNACA were selected and incubated along with human cystinotic fibroblasts in media. […] Media was then removed, and cells were incubated in 0.5mg/ml MTT (3-(4,5-dimethylthiazol-2-yl)-2,5-diphenyltetrazolium bromide) reconstituted in media. A colorimetric assay used reduction of the yellow tetrazolium salt (MTT) to a purple formazan salt in order to measure cellular metabolic activity as a proxy for cell viability. Treated cells were incubated in MTT for 4 hours at 37° C., after which time intracellular purple formazan salt crystals were visible under a microscope. MTT solution was then removed, and DMSO was added to each well in order to lyse cells and dissolve the salt crystals. After 1 hour incubation at 37° C., absorbance was measured on a multiwell plate reader (Biotek FL6000) at 570 nm, and percentage cell viability calculated.

Data set [3] shares this test system. In words: Screening of cystine-depleting activity in human cystinotic cell-based model. The note with it: 50 μM. The protocol: A specialized in vitro human cystinotic cell-based model was used for determining cystine content (Omran et al., 2011c). […]
The cells were recovered from storage at −80° C. and suspended in 100 μl […] N-ethyl malimide prepared in phosphate buffer (pH 7.6) followed by sonication for 10 seconds which was repeated 3 times with 20 second cooling intervals on ice. The solution was centrifuged at 800 G for 10 min at 4° C. (Biofuge primo R Heraeus centrifuge). To this cell supernatant (40 μl) was added 4 μl of 4M NaBH4 in 7:3 0.1 M NaOH/DMSO. After 5 min incubation at room temperature, 800 μl of sodium acetate buffer (pH 4.7) was added. A 5 μl volume of the diluted solution was added to 100 μl of 0.6mg/ml solution of Papain-SSCH3 in a 96 well plate and incubated for one hour at room temperature. A 100 μl volume of 4.9 mM L-benzoylarginine p-nitroanilide (L-BAPNA) solution in sodium acetate buffer (pH 4.0) was added to each well of the 96 well plate, gently mixed and incubated for further one hour at room temperature. Absorption at 410 nm was measured and the cysteine levels were calculated by comparison to known cysteine standard.
The protein concentration in every sample was measured according to Bradford method. Briefly, 200 μl of Bradford reagent was added to 5 μl of cell supernatant in each well of a 96 well plate and incubated for 5 minutes at room temperature and the absorption at 595 nm was measured. The protein concentration was calculated using a range of concentrations of bovine serum albumin as a standard. The cysteine levels were determined following normalization to μM cysteine per mg of protein.

The subject of data set [4] is rabbit eyes. In words: Ophthalmic tolerability, daily Draize scores after topical ocular administration. It counts as in vivo. The note with it: rabbits, 1% in prototype vehicle, per animal and eye; for Daily Draize Scores for Chemosis, Day 1 / Daily Draize Scores for Discharge, Day 1 / Daily Draize Scores for Hyperemia, Day 1 / Daily Draize Scores for Chemosis, Day 2 / Daily Draize Scores for Discharge, Day 2 / Daily Draize Scores for Hyperemia, Day 2 / Daily Draize Scores for Chemosis, Day 3 / Daily Draize Scores for Discharge, Day 3 / Daily Draize Scores for Hyperemia, Day 3 / Daily Draize Scores for Chemosis, Day 4 / Daily Draize Scores for Discharge, Day 4 / Daily Draize Scores for Hyperemia, Day 4 / Daily Draize Scores for Chemosis, Day 5 / Daily Draize Scores for Discharge, Day 5 / Daily Draize Scores for Hyperemia, Day 5 / Daily Draize Scores for Chemosis, Day 6 / Daily Draize Scores for Discharge, Day 6 / Daily Draize Scores for Hyperemia, Day 6: bilateral topical four times a day; for Daily Draize Scores for Chemosis, Day 7 / Daily Draize Scores for Discharge, Day 7 / Daily Draize Scores for Hyperemia, Day 7 / Daily Draize Scores for Chemosis, Day B / Daily Draize Scores for Discharge, Day B / Daily Draize Scores for Hyperemia, Day B: bilateral topical; for Daily Draize Scores for Chemosis, Day 7 / Daily Draize Scores for Discharge, Day 7 / Daily Draize Scores for Hyperemia, Day 7: once on Day 7; for Daily Draize Scores for Chemosis, Day B / Daily Draize Scores for Discharge, Day B / Daily Draize Scores for Hyperemia, Day B: (baseline). The protocol:
To simulate topical ocular exposure to an ophthalmic insert containing AGENT, prototype ophthalmic formulations were prepared containing either 1% NPI-001, 1% diNACA, 1% NAC or vehicle and tested to evaluate ocular tolerability. Three rabbits per group were administered 1% NPI-001, 1% di-NAC, 1% NAC in a prototype vehicle, via bilateral topical administration four times a day for 6 days, and once on Day 7.

Data set [5] is described as follows: NACA in aqueous humor after topical ocular administration. The note with it: rabbit eyes, 1% topical ocular. It counts as in vivo. The protocol: The thiol moiety of NAC, NACA, diNACA and their respective internal standards oxidizes quickly in plasma through formation of disulfides. In order to determine total NAC and total NACA levels in plasma, tris(2-carboxyethyl)phosphine (TCEP) is added during the extraction to reduce disulfide bonds (King et al., 2019). Ammonium bicarbonate is added to control sample pH near neutral, as TCEP will otherwise acidify the aliquoted samples and hinder derivatization. The free analyte is then derivatized to a stable thioether using 2-chloro-1-methylpyridinium iodide (CMPI). N-acetyl-L-cysteine is used as the reference standard. The assay would not discern the enantiomer, N-acetyl-D-cysteine, if present. A sample volume of 25.0 μL is aliquoted into a 1.2 mL 96-well plate to which is added, in sequence, 25.0 μL internal standard solution (1000 ng/mL NAC-D3 and 1000 ng/mL NACA-D3 in water), 50.0 μL of ammonium bicarbonate (100 mM), 5.0 μL CMPI (60 mM in water), and 5.0 μL of TCEP (60 mM in water). Samples are allowed to react for 30 minutes. To precipitate proteins, 500 μL of acetonitrile is then added to all samples. The plate is covered and the mixtures are shaken and centrifuged. […]
Samples were analyzed on a Waters Acquity liquid chromatograph interfaced with a Thermo Scientific TSQ Vantage triple quadrupole mass spectrometer with ESI ionization (King et al., 2019). […]

With `N[C@@H](CCC(=O)N[C@@H](CS)C(=O)NCC(=O)O)C(=O)O` [GSH, c-L-glutamyl-L-cysteinyl-glycine], the Ki (commonly the dissociation constant of the complex between target and ligand, obtained from inhibition or displacement) in data set [1] (read-out: Ki, nonallosteric competitive inhibition of GCL) is 2300 µM.

For `N[C@@H](CS)C(=O)O` [cysteine, L-cysteine], the Km (in general, the concentration of substrate that gives half-maximal velocity) in data set [1] was 100 to 300 µM.

Take `CC(=O)NC(CSSCC(NC(C)=O)C(N)=O)C(N)=O` [diNACA, (2R,2R′)-3,3′-disulfanediyl bis(2-acetamidopropanamide)]: the “increase of human cystinotic cell viability compared to cysteamine at the same concentration” value in data set [2] (48 hours (FIG. 1)) is “statistically superior to cysteamine”. Also, the “increase of human cystinotic cell viability compared to cysteamine at the same concentration” value in data set [2] (72 hours (FIG. 2)) was “statistically superior to cysteamine”. Moreover, in data set [2], the “cell viability (cytotoxicity) versus no treatment” value was “increased cell viability”. Also, the “relative cystine concentration as percent of control, comparison with cysteamine” value in data set [3] (6 hours (FIG. 3)) is listed as “statistically superior to cysteamine”. Further, the “relative cystine concentration as percent of control, comparison with cysteamine” value in data set [3] (24 hours (FIG. 4)) is recorded as “superior to cysteamine”. Besides, the “relative cystine concentration as percent of control, comparison with cysteamine” value in data set [3] (48 hours (FIG. 5)) is on record as “statistically superior to cysteamine”. In data set [3] (72 hours (FIG. 6)), the “depletion of cystine compared to control” value is 20%. Moreover, in data set [4], the “Daily Draize Scores for Chemosis, Day 1” value was determined as 0; the “Daily Draize Scores for Discharge, Day 1” value is reported as 0; the “Daily Draize Scores for Hyperemia, Day 1” value is 0; the “Daily Draize Scores for Chemosis, Day 2” value was found to be 0. Further, in data set [4], the “Daily Draize Scores for Discharge, Day 2” value turned out to be 0; the “Daily Draize Scores for Hyperemia, Day 2” value was determined as 0; the “Daily Draize Scores for Chemosis, Day 3” value turned out to be 0; the “Daily Draize Scores for Discharge, Day 3” value amounted to 0. In data set [4], the “Daily Draize Scores for Hyperemia, Day 3” value turned out to be 0; the “Daily Draize Scores for Chemosis, Day 4” value is reported as 0; the “Daily Draize Scores for Discharge, Day 4” value is 0 (3×) and 1 (2×) and 0.5; the “Daily Draize Scores for Hyperemia, Day 4” value stood at 0. In addition, in data set [4], the “Daily Draize Scores for Chemosis, Day 5” value came to 0; the “Daily Draize Scores for Discharge, Day 5” value was 0; the “Daily Draize Scores for Hyperemia, Day 5” value came out at 0; the “Daily Draize Scores for Chemosis, Day 6” value worked out at 0. For the same compound, in data set [4], the “Daily Draize Scores for Discharge, Day 6” value is 0 (4×) and 0.5 (2×); the “Daily Draize Scores for Hyperemia, Day 6” value worked out at 0; the “Daily Draize Scores for Chemosis, Day 7” value amounted to 0; the “Daily Draize Scores for Discharge, Day 7” value was 0 (5×) and 0.5. For the same compound, in data set [4], the “Daily Draize Scores for Hyperemia, Day 7” value was found to be 0; the “Daily Draize Scores for Chemosis, Day B” value amounted to 0; the “Daily Draize Scores for Discharge, Day B” value was 0; the “Daily Draize Scores for Hyperemia, Day B” value stood at 0. The “NACA in aqueous humor” value in data set [5] was “detectable”.

With `CC(=O)NC(CS)C(N)=O` (centres unmarked), the “cell viability (cytotoxicity) versus no treatment” value in data set [2] is “increased cell viability”. In addition, the “increase of human cystinotic cell viability compared to cysteamine at the same concentrations” value in data set [2] (all concentrations (25, 50, 75 μM), 72 hours (FIG. 2)) is reported as “statistically superior to cysteamine”. Moreover, the “relative cystine concentration as percent of control, comparison with cysteamine” value in data set [3] (6 hours (FIG. 3)) was “statistically superior to cysteamine”. Further, the “relative cystine concentration as percent of control, comparison with cysteamine” value in data set [3] (24 hours (FIG. 4)) is listed as “statistically superior”. Further, the “relative cystine concentration as percent of control, comparison with cysteamine” value in data set [3] (48 hours (FIG. 5)) was “statistically superior to cysteamine”. Besides, in data set [3] (72 hours (FIG. 6)), the “relative cystine concentration as percent of control, comparison with cysteamine” value was “superior to cysteamine”. Further, in data set [4], the “Daily Draize Scores for Chemosis, Day 1” value is on record as 0; the “Daily Draize Scores for Discharge, Day 1” value is listed as 0; the “Daily Draize Scores for Hyperemia, Day 1” value came to 0; the “Daily Draize Scores for Chemosis, Day 2” value is 0. In data set [4], the “Daily Draize Scores for Discharge, Day 2” value came out at 0; the “Daily Draize Scores for Hyperemia, Day 2” value is listed as 0; the “Daily Draize Scores for Chemosis, Day 3” value turned out to be 0; the “Daily Draize Scores for Discharge, Day 3” value was determined as 0. For the same compound, in data set [4], the “Daily Draize Scores for Hyperemia, Day 3” value is given as 0; the “Daily Draize Scores for Chemosis, Day 4” value was 0; the “Daily Draize Scores for Discharge, Day 4” value was 0; the “Daily Draize Scores for Hyperemia, Day 4” value was 0. In data set [4], the “Daily Draize Scores for Chemosis, Day 5” value is reported as 0; the “Daily Draize Scores for Discharge, Day 5” value stood at 0; the “Daily Draize Scores for Hyperemia, Day 5” value turned out to be 0; the “Daily Draize Scores for Chemosis, Day 6” value came out at 0. Besides, in data set [4], the “Daily Draize Scores for Hyperemia, Day 6” value is reported as 0; the “Daily Draize Scores for Chemosis, Day 7” value was 0; the “Daily Draize Scores for Hyperemia, Day 7” value worked out at 0; the “Daily Draize Scores for Chemosis, Day B” value is on record as 0. Moreover, in data set [4], the “Daily Draize Scores for Discharge, Day B” value was found to be 0 and the “Daily Draize Scores for Hyperemia, Day B” value was 0. For the same compound, in data set [4] (listed as NPI-001), the “Daily Draize Scores for Discharge, Day 6” value was 0.5 and 0 (5×); the “Daily Draize Scores for Discharge, Day 7” value is 0 (4×) and 0.5 (2×). Moreover, the “NACA in aqueous humor” value in data set [5] was “detectable”.
